Experimental data taken from patent US6838414B2, “Substituted aryl sulphonyl(thio)ureas used as herbicides” (Bayer Aktiengesellschaft, priority 1996, dated 2005).

Experiments:
Assay type in all cases: in vivo
[1] = tested on: Alopecurus; assay: Pre-emergence test/greenhouse; conditions: after three weeks
Description: (§1) To produce a suitable preparation of active compound, 1 part by weight of active compound is mixed with the stated amount of solvent, the stated amount of emulsifier is added and the concentrate is diluted with water to the desired concentration.
(§2) Seeds of the test plants are sown in normal soil. After about 24 hours, the soil is sprayed with the preparation of the active compound. Advantageously, the amount of water per unit area is kept constant. The active compound concentration in the preparation is not important, only the active compound application rate per unit area is critical.
(§3) After three weeks, the degree of damage to the plants is rated in % damage in comparison with the development of the untreated control.
(§4) The figures denote: • 0%=no effect (like untreated control) • 100%=total destruction

[2] = tested on: Amaranthus; assay: Pre-emergence test/greenhouse; conditions: 60 g of ai./ha, after three weeks
Description: as §1, §2, §3, §4

[3] = tested on: Chenopodium; assay: Pre-emergence test/greenhouse; conditions: after three weeks
Description: as §1, §2, §3, §4

[4] = tested on: Lolium; assay: Pre-emergence test/greenhouse; conditions: after three weeks
Description: as §1, §2, §3, §4

[5] = tested on: Sorghum; assay: Pre-emergence test/greenhouse; conditions: after three weeks
Description: as §1, §2, §3, §4

[6] = tested on: Stellaria; assay: Pre-emergence test/greenhouse; conditions: after three weeks
Description: as §1, §2, §3, §4

[7] = tested on: weeds; assay: Pre-emergence test (overall statement); conditions: application rates between 30 g and 125 g of a.i. per hectare
Description: as §1, §2, §3, §4

[8] = tested on: Abutilon; assay: Post-emergence test/greenhouse; conditions: rated after three weeks vs untreated control
Description: as §1
(§5) Test plants which have a height of 5-15 cm are sprayed with the preparation of the active compound in such a way as to apply the particular amounts of active compound desired per unit area. The concentration of the spray liquor is chosen so that the amounts of active compound desired in each case are applied in 1000 l of water/ha.
as §3, §4

[9] = tested on: Alopecurus; assay: Post-emergence test/greenhouse; conditions: rated after three weeks vs untreated control
Description: as §1, §5, §3, §4

[10] = tested on: Echinochloa; assay: Post-emergence test/greenhouse; conditions: rated after three weeks vs untreated control
Description: as §1, §5, §3, §4

[11] = tested on: Matricaria; assay: Post-emergence test/greenhouse; conditions: rated after three weeks vs untreated control
Description: as §1, §5, §3, §4

[12] = tested on: weeds; assay: Post-emergence test/greenhouse
Description: as §1, §5, §3, §4

[13] = application rate 30 g of ai./ha
[14] = application rate 60 g of ai./ha

CCCOc1cccc(C(F)(F)F)c1S(=O)(=O)NC(=O)Nc1nc(OC)nc(OC)n1 [Example 10]
Alopecurus, % damage ([1]; 60 g of ai./ha): 100%
Amaranthus, % damage [2]: 100%
Chenopodium, % damage ([3]; 60 g of ai./ha): 100%
Lolium, % damage ([4]; 60 g of ai./ha): 100%
Sorghum, % damage ([5]; 60 g of ai./ha): 100%
Steltaria, % damage ([6]; 60 g of ai./ha): 100%
activity against weeds [7]: very strong activity against weeds

CCCOc1cccc(C(F)(F)F)c1S(=O)(=O)NC(=O)Nc1nc(C)cc(C)n1 [Example 11]
Alopecurus, % damage ([1]; 60 g of ai./ha): 100%
Amaranthus, % damage [2]: 100%
Chenopodium, % damage ([3]; 60 g of ai./ha): 100%
Lolium, % damage ([4]; 60 g of ai./ha): 100%
Sorghum, % damage ([5]; 60 g of ai./ha): 100%
Steltaria, % damage ([6]; 60 g of ai./ha): 95%
activity against weeds [7]: very strong activity against weeds

Cc1cc(C)nc(NC(=O)NS(=O)(=O)c2c(OC(C)C)cccc2C(F)(F)F)n1 [Example 14]
Alopecurus, % damage ([1]; 30 g of ai./ha): 100%
Chenopodium, % damage ([3]; 30 g of ai./ha): 95%
Lolium, % damage ([4]; 30 g of ai./ha): 100%
Sorghum, % damage ([5]; 30 g of ai./ha): 95%
Steltaria, % damage ([6]; 30 g of ai./ha): 95%
activity against weeds [7]: very strong activity against weeds

COc1cc(OC)nc(NC(=O)NS(=O)(=O)c2c(OC(C)C)cccc2C(F)(F)F)n1 [Example 25]
degree of damage to the plants, Abutilon [8, 13]: 95%
degree of damage to the plants, Alopecurus [9, 13]: 60%
degree of damage to the plants, Echinochloa [10, 13]: 70%
degree of damage to the plants, Matricaria [11, 13]: 90%
activity against weeds [12]: very strong activity against weeds

CCCOc1cccc(C)c1S(=O)(=O)NC(=O)Nc1nc(C)cc(OC)n1 [Example 46]
Alopecurus, % damage ([1]; 60 g of ai./ha): 100%
Amaranthus, % damage [2]: 90%
Chenopodium, % damage ([3]; 60 g of ai./ha): 100%
Lolium, % damage ([4]; 60 g of ai./ha): 90%
Sorghum, % damage ([5]; 60 g of ai./ha): 100%
Steltaria, % damage ([6]; 60 g of ai./ha): 80%
activity against weeds [7]: very strong activity against weeds

COc1cc(C)nc(NC(=O)NS(=O)(=O)c2c(C)cccc2OC(C)C)n1 [Example 33]
Alopecurus, % damage ([1]; 30 g of ai./ha): 100%
Chenopodium, % damage ([3]; 30 g of ai./ha): 70%
Lolium, % damage ([4]; 30 g of ai./ha): 95%
Sorghum, % damage ([5]; 30 g of ai./ha): 100%
Steltaria, % damage ([6]; 30 g of ai./ha): 90%
activity against weeds [7]: very strong activity against weeds

CCCOc1cccc(C(F)(F)F)c1S(=O)(=O)NC(=O)Nc1nc(Cl)cc(OC)n1 [Example 17]
degree of damage to the plants, Abutilon [8, 13]: 90%
degree of damage to the plants, Echinochloa [10, 13]: 70%
degree of damage to the plants, Matricaria [11, 13]: 95%
activity against weeds [12]: very strong activity against weeds

COc1nc(C)nc(NC(=O)NS(=O)(=O)c2c(C)cccc2OC2CCCC2)n1 [Example 56]
Alopecurus, % damage ([1]; 60 g of ai./ha): 100%
Amaranthus, % damage [2]: 100%
Chenopodium, % damage ([3]; 60 g of ai./ha): 100%
Lolium, % damage ([4]; 60 g of ai./ha): 100%
Sorghum, % damage ([5]; 60 g of ai./ha): 90%
Steltaria, % damage ([6]; 60 g of ai./ha): 100%
activity against weeds [7]: very strong activity against weeds

COc1nc(NC(=O)NS(=O)(=O)c2c(OC(C)C)cccc2C(F)(F)F)nc(OC)n1 [Example 13]
Alopecurus, % damage ([1]; 60 g of ai./ha): 100%
Amaranthus, % damage [2]: 100%
Chenopodium, % damage ([3]; 60 g of ai./ha): 100%
Lolium, % damage ([4]; 60 g of ai./ha): 100%
Sorghum, % damage ([5]; 60 g of ai./ha): 100%
Steltaria, % damage ([6]; 60 g of ai./ha): 100%
activity against weeds [7]: very strong activity against weeds

CCCOc1cccc(C(F)(F)F)c1S(=O)(=O)NC(=O)Nc1nc(OC)cc(OC)n1 [Example 24]
degree of damage to the plants, Abutilon [8, 13]: 95%
degree of damage to the plants, Alopecurus [9, 13]: 60%
degree of damage to the plants, Echinochloa [10, 13]: 70%
degree of damage to the plants, Matricaria [11, 13]: 95%
activity against weeds [12]: very strong activity against weeds

CCOc1cccc(C(F)(F)F)c1S(=O)(=O)NC(=O)Nc1nc(Cl)cc(OC)n1 [Example 16]
Alopecurus, % damage ([1]; 30 g of ai./ha): 100%
Chenopodium, % damage ([3]; 30 g of ai./ha): 100%
Sorghum, % damage ([5]; 30 g of ai./ha): 80%
Steltaria, % damage ([6]; 30 g of ai./ha): 90%
activity against weeds [7]: very strong activity against weeds
degree of damage to the plants, Abutilon [8, 13]: 100%
degree of damage to the plants, Alopecurus [9, 13]: 70%
degree of damage to the plants, Echinochloa [10, 13]: 70%
degree of damage to the plants, Matricaria [11, 13]: 100%
activity against weeds [12]: very strong activity against weeds

C#CCOc1cccc(C)c1S(=O)(=O)NC(=O)Nc1nc(OC)cc(OC)n1 [Example 34]
Alopecurus, % damage ([1]; 30 g of ai./ha): 100%
Chenopodium, % damage ([3]; 30 g of ai./ha): 90%
Sorghum, % damage ([5]; 30 g of ai./ha): 90%
Steltaria, % damage ([6]; 30 g of ai./ha): 90%
activity against weeds [7]: very strong activity against weeds
degree of damage to the plants, Abutilon [8, 13]: 90%
degree of damage to the plants, Alopecurus [9, 13]: 60%
degree of damage to the plants, Echinochloa [10, 13]: 80%
degree of damage to the plants, Matricaria [11, 13]: 90%
activity against weeds [12]: very strong activity against weeds

CCOc1cccc(C(C)C)c1S(=O)(=O)NC(=O)Nc1nc(OC)nc(OC)n1 [Example 51]
degree of damage to the plants, Abutilon [8, 14]: 100%
degree of damage to the plants, Alopecurus [9, 14]: 80%
degree of damage to the plants, Echinochloa [10, 14]: 90%
degree of damage to the plants, Matricaria [11, 14]: 90%
activity against weeds [12]: very strong activity against weeds

CCOc1cccc(C(F)(F)F)c1S(=O)(=O)NC(=O)Nc1nc(OC)cc(OC)n1 [Example 23]
degree of damage to the plants, Abutilon [8, 13]: 95%
degree of damage to the plants, Alopecurus [9, 13]: 60%
degree of damage to the plants, Echinochloa [10, 13]: 70%
degree of damage to the plants, Matricaria [11, 13]: 95%
activity against weeds [12]: very strong activity against weeds

CCOc1cccc(C(F)(F)F)c1S(=O)(=O)NC(=O)Nc1nc(C)cc(C)n1 [Example 8]
Alopecurus, % damage ([1]; 30 g of ai./ha): 100%
Chenopodium, % damage ([3]; 30 g of ai./ha): 80%
Lolium, % damage ([4]; 30 g of ai./ha): 100%
Sorghum, % damage ([5]; 30 g of ai./ha): 100%
Steltaria, % damage ([6]; 30 g of ai./ha): 90%
activity against weeds [7]: very strong activity against weeds
degree of damage to the plants, Abutilon [8, 13]: 90%
degree of damage to the plants, Alopecurus [9, 13]: 80%
degree of damage to the plants, Echinochloa [10, 13]: 90%
degree of damage to the plants, Matricaria [11, 13]: 100%
activity against weeds [12]: very strong activity against weeds
